Experimental data published in ChEMBL document CHEMBL3286296, “Design and synthesis of phenylisoxazole derivatives as novel human acrosin inhibitors” (Bioorg Med Chem Lett, 2014).

target: T1, Acrosin (Homo sapiens, UniProt P10323); assay: Inhibition of human acrosin using N-alpha-benzoyl-L-arginine p-nitroanilide as substrate after 3 hrs by spectrophotometry
T1 sequence (P10323 20-42 limits assumed): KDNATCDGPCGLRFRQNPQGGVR
T1 sequence (P10323 43-343 limits assumed): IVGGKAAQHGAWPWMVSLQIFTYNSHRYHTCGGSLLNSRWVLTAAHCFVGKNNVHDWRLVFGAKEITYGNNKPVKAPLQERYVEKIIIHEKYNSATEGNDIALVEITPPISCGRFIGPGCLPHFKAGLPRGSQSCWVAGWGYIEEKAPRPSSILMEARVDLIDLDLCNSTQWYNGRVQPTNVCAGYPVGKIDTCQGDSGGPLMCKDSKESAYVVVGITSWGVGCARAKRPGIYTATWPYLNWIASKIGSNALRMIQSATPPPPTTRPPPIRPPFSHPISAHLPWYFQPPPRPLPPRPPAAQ

| Compound | IC50 [µM] |
| --- | --- |
| CC(CO)NC(=O)c1cc(-c2ccc(NC(=N)N)cc2)on1 (configuration not stated) | > 100 |
| COc1ccc(OC)c(NC(=O)c2cc(-c3ccc(NC(=N)N)cc3)on2)c1 | 2.3 |
| Cc1cccc(NC(=O)c2cc(-c3ccc(NC(=N)N)cc3)on2)c1C | 11.5 |
| CCOC(=O)c1cc(-c2ccc(NC(=O)c3ccc(Cl)c(Cl)c3)cc2)on1 | 240 |
| N=C(N)Nc1ccc(-c2cc(C(=O)Nc3ccccc3Br)no2)cc1 | 27.9 |
| CCOc1ccc(NC(=O)c2cc(-c3ccc(NC(=N)N)cc3)on2)cc1 | 6.4 |
| CC(C)(C)c1ccc(NC(=O)c2cc(-c3ccc(NC(=N)N)cc3)on2)cc1 | 7.8 |
| N=C(N)Nc1ccc(-c2cc(C(=O)Nc3cccc(Cl)c3)no2)cc1 | 25.4 |
| COc1ccc(NC(=O)c2cc(-c3ccc(NC(=N)N)cc3)on2)c(OC)c1 | 1.4 |
| CC(C)NC(=O)c1cc(-c2ccc(NC(=N)N)cc2)on1 | > 100 |
| Cc1cc(C)cc(NC(=O)c2cc(-c3ccc(NC(=N)N)cc3)on2)c1 | 12.1 |
| N=C(N)Nc1ccc(-c2cc(C(=O)Nc3ccc(Cl)cc3)no2)cc1 | 26.8 |
| CCOC(=O)c1cc(-c2ccc(NC(=O)c3ccc(Cl)cc3)cc2)on1 | 380 |
| Cc1cccc(NC(=O)c2cc(-c3ccc(NC(=N)N)cc3)on2)c1 | 9.4 |
| N=C(N)Nc1ccc(-c2cc(C(=O)Nc3ccc(C(F)(F)F)cc3)no2)cc1 | 20.3 |
| Cc1ccccc1NC(=O)c1cc(-c2ccc(NC(=N)N)cc2)on1 | 14.4 |
| COc1cccc(NC(=O)c2cc(-c3ccc(NC(=N)N)cc3)on2)c1 | 6.6 |
| N=C(N)Nc1ccc(-c2cc(C(=O)Nc3cccc(Br)c3)no2)cc1 | 14.4 |
| CCOC(=O)c1cc(-c2ccc(NC(=O)c3ccccc3)cc2)on1 | 460 |
| Cc1cccc(C)c1NC(=O)c1cc(-c2ccc(NC(=N)N)cc2)on1 | 5.7 |

The next lines start with the values.

| IC50 [µM] | Compound |
| --- | --- |
| 8.4 | COc1ccccc1NC(=O)c1cc(-c2ccc(NC(=N)N)cc2)on1 |
| 10.1 | Cc1ccc(NC(=O)c2cc(-c3ccc(NC(=N)N)cc3)on2)cc1 |
| 29.9 | N=C(N)Nc1ccc(-c2cc(C(=O)Nc3cccc4ccccc34)no2)cc1 |
| 9.3 | CCOC(=O)c1ccc(NC(=O)c2cc(-c3ccc(NC(=N)N)cc3)on2)cc1 |
| 23.9 | N#Cc1ccc(NC(=O)c2cc(-c3ccc(NC(=N)N)cc3)on2)cc1 |
| 21.4 | Cc1ccnc(NC(=O)c2cc(-c3ccc(NC(=N)N)cc3)on2)c1 |
| 140 | CCOC(=O)c1cc(-c2ccc(NC(=O)c3ccc(F)cc3)cc2)on1 |
| 60 | CCOC(=O)c1cc(-c2ccc(NC(=O)c3ccccc3Cl)cc2)on1 |
| 20.5 | N=C(N)Nc1ccc(-c2cc(C(=O)Nc3ccc(F)cc3)no2)cc1 |
| 24.6 | N=C(N)Nc1ccc(-c2cc(C(=O)Nc3ccccc3)no2)cc1 |

tested on: not listed separately; assay: Inhibition of pig trypsin; set-up: species or system Sus scrofa

| IC50 [µM] | Compound |
| --- | --- |
| 4200 | COc1ccc(NC(=O)c2cc(-c3ccc(NC(=N)N)cc3)on2)c(OC)c1 |

target: T1, Acrosin; assay: Ratio of ISO-1 IC50 to compound IC50 for human acrosin using N-alpha-benzoyl-L-arginine p-nitroanilide as substrate after 3 hrs by spectrophotometry

| Ratio IC50 | Compound |
| --- | --- |
| 6 | CCOC(=O)c1cc(-c2ccc(NC(=O)c3ccccc3Cl)cc2)on1 |
